# Source: patent US9636418B2 (priority 2013, dated 2017)
# Several values for one entry are separate records, joined by “and”; a condition that tells them apart may be missing. Identical values can stand only once. Like-named read-outs stand apart in the source and are kept apart here.
# Experiments:
# Assay in all cases: cell-based
# [1] = target: T1, hNav1.7 (Homo sapiens, UniProt Q15858); type: cell-based; conditions: PatchXpress, read-out: PX hNav1.7 Tonic IC50
# [2] = target: T2, hNav1.4 (Homo sapiens, UniProt P35499); conditions: for IC50: IonWorks Quattro, read-out: IC50 Nav1.4; for Nav1.4/Nav1.7: ratio of IonWorks Quattro IC50 values
# [3] = target: hNav1.3 (Homo sapiens, UniProt Q9NY46); conditions: IonWorks Quattro; read-out: IC50 Nav1.3
# Sequence of hNav1.3 (Q9NY46 whole entry): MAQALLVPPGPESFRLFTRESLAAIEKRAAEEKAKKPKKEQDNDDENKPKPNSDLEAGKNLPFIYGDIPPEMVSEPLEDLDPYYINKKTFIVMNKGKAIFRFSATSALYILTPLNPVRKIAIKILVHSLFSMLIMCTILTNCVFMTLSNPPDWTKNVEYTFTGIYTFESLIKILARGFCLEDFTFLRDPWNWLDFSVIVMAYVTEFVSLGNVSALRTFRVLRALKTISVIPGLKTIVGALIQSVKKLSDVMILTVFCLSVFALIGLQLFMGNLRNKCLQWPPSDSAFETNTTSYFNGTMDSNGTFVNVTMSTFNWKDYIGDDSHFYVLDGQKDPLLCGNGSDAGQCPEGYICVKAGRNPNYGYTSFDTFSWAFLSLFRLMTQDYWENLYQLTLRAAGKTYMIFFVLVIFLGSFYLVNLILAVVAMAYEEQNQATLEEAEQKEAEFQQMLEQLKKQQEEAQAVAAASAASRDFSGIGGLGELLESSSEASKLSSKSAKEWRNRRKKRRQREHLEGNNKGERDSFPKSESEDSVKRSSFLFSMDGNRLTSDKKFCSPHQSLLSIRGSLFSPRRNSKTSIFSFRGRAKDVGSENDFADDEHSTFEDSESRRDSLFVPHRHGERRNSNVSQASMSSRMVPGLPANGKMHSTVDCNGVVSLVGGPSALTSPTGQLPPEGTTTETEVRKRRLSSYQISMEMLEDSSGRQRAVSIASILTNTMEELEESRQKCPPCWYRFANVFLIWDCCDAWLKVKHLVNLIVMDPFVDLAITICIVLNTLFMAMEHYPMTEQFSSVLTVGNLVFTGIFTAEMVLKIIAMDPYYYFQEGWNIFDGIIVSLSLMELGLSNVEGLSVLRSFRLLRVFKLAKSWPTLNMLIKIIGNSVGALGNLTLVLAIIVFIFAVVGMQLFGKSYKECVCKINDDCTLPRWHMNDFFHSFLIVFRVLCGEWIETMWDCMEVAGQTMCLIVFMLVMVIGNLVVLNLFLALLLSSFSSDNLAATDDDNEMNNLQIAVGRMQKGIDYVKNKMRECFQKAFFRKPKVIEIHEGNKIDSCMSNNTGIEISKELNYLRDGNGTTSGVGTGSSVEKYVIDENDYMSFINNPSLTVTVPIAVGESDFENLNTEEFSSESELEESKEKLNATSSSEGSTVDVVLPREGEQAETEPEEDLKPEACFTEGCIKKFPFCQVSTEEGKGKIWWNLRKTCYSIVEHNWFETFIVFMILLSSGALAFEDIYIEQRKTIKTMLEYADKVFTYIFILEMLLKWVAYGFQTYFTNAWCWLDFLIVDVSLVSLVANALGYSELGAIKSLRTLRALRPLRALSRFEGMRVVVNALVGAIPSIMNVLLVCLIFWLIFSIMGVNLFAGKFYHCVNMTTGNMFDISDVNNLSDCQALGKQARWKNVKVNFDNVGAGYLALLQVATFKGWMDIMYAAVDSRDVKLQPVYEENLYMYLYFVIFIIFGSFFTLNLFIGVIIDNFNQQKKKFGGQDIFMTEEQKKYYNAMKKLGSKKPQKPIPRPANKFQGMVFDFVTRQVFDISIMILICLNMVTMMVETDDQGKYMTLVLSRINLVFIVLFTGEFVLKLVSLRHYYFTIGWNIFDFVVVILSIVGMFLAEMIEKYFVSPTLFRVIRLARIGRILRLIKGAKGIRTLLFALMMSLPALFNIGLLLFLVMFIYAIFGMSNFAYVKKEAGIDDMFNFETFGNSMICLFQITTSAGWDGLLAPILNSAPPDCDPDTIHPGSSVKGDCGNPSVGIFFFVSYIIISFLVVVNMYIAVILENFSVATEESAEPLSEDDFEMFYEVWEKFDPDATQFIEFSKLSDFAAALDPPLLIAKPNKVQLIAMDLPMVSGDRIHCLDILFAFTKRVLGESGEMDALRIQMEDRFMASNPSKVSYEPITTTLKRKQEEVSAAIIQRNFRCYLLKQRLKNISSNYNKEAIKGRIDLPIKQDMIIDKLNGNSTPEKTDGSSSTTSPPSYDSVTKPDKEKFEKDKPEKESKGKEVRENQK
# [4] = target: T1, hNav1.7; conditions: IonWorks Quattro; read-out: IC50 Nav1.7
# [5] = target: T3, hNav1.5 (Homo sapiens, UniProt Q14524); conditions: PatchXpress, read-out: PX hNav1.5 Tonic IC50
# [6] = target: T3, hNav1.5; conditions: IonWorks Quattro; read-out: IC50 Nav1.5
# [7] = target: T2, hNav1.4; conditions: for IC50: PatchXpress, read-out: PX hNav1.4 Tonic IC50
# [8] = * = at high concentrations compound would wash off slowly or not at all
# T1 sequence (Q15858 whole entry): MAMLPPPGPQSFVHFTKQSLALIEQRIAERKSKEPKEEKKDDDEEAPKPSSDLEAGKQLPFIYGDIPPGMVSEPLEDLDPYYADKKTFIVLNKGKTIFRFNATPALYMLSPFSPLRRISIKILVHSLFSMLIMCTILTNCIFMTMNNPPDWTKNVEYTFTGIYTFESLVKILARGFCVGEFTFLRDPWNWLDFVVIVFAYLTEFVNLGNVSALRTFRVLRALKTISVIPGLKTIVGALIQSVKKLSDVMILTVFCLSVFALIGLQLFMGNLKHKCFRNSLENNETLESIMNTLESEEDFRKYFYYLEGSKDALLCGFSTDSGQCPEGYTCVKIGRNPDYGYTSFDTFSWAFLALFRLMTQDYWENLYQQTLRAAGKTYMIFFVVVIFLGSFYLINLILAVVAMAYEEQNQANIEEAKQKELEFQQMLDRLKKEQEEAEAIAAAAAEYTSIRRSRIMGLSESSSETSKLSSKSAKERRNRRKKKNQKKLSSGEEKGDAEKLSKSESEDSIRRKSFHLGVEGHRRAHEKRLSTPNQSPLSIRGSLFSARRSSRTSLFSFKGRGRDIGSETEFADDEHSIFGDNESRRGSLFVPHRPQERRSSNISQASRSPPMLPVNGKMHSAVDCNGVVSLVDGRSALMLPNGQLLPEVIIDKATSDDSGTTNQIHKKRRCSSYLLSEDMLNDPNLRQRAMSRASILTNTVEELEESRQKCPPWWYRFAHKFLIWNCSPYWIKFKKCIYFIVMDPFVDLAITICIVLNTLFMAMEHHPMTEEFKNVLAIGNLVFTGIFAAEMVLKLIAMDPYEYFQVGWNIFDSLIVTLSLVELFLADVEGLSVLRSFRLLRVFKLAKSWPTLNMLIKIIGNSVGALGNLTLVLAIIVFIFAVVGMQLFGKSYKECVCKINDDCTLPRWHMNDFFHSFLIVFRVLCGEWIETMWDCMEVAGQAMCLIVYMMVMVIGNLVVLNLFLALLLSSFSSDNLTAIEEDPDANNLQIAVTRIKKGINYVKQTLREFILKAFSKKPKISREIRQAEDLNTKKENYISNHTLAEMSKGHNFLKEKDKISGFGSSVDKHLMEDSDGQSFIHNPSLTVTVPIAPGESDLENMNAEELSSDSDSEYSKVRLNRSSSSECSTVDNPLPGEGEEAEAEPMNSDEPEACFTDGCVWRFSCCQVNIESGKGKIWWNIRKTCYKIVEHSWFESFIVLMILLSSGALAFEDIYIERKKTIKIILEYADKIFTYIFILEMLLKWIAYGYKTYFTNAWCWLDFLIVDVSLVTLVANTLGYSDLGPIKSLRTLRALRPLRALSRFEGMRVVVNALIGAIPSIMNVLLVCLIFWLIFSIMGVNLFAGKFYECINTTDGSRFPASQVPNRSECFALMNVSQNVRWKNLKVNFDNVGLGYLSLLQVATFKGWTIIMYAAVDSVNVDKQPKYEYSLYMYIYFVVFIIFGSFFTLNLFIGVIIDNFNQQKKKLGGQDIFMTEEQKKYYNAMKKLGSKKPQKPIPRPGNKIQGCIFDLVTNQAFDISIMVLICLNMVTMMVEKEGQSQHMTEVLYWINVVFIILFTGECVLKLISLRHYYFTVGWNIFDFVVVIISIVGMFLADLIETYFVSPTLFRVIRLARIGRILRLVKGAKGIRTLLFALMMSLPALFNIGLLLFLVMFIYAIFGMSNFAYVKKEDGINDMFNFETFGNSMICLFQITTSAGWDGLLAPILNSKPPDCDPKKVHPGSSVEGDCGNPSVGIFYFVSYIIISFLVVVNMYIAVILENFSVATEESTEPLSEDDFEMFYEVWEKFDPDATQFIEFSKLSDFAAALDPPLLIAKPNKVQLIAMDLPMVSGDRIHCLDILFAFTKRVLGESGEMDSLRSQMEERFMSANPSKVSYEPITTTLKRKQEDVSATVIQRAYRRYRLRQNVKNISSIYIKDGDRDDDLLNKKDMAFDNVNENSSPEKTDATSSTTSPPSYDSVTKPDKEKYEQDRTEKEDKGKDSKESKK
SMILES,"IC50 [1, 8]",IC50 [2],IC50 [3],IC50 [4],"IC50 [5, 8]",IC50 [6],"IC50 [7, 8]",IC50 ([1]; tonic block),Nav1.4/Nav1.7 [2],IC50 ([5]; tonic block),IC50 ([7]; tonic block),Nav1.4/Nav1.7 ([7]; ratio of PX tonic IC50 values)
CCCC[C@H](NC(=O)[C@H](Cc1ccc(O)cc1)NC(=O)[C@H](CCCCN)NC(=O)[C@H](CCCNC(=N)N)NC(=O)[C@@H]1CSSC[C@@H]2NC(=O)[C@H](C)NC(=O)[C@H](CCCNC(=N)N)NC(=O)[C@H](CCCCN)NC(=O)[C@H](CO)NC(=O)[C@H](CC(=O)O)NC(=O)[C@@H]3CSSC[C@H](NC(=O)[C@H](CCC(=O)O)NC(=O)[C@H](CC(C)C)NC(=O)CNC(=O)[C@H](CCC(=O)O)NC(=O)[C@H](CSSC[C@H](NC(=O)[C@@H](N)Cc4ccc(O)cc4)C(=O)N[C@@H](CCC(N)=O)C(=O)N[C@@H](CCCCN)C(=O)N[C@@H](Cc4c[nH]c5ccccc45)C(=O)N[C@@H](CCSC)C(=O)N[C@@H](Cc4c[nH]c5ccccc45)C(=O)N[C@@H]([C@@H](C)O)C(=O)N3)NC2=O)C(=O)N[C@@H](CCCCN)C(=O)N[C@@H](CC(C)C)C(=O)N[C@@H](Cc2c[nH]c3ccccc23)C(=O)N1)C(N)=O [compound 239],0.0062 µM,> 5 µM,4 µM,0.079 µM,9.77 µM,> 5 µM,0.786 µM,–,–,–,–,–
CC[C@H](C)[C@H](NC(=O)[C@H](Cc1ccc(O)cc1)NC(=O)[C@H](CCCCN)NC(=O)[C@H](CCCNC(=N)N)NC(=O)[C@@H]1CSSC[C@@H]2NC(=O)[C@H](C)NC(=O)[C@H](CCCNC(=N)N)NC(=O)[C@H](CCCCN)NC(=O)[C@H](CO)NC(=O)[C@H](CC(=O)O)NC(=O)[C@@H]3CSSC[C@H](NC(=O)[C@H](CCC(=O)O)NC(=O)[C@H](CC(C)C)NC(=O)CNC(=O)[C@H](CCC(=O)O)NC(=O)[C@H](CSSC[C@H](NC(=O)[C@@H](N)Cc4ccc(O)cc4)C(=O)N[C@@H](CCC(N)=O)C(=O)N[C@@H](CCCCN)C(=O)N[C@@H](Cc4c[nH]c5ccccc45)C(=O)N[C@@H](CCSC)C(=O)N[C@@H](Cc4c[nH]c5ccccc45)C(=O)N[C@@H]([C@@H](C)O)C(=O)N3)NC2=O)C(=O)N[C@@H](CCCCN)C(=O)N[C@@H](CC(C)C)C(=O)N[C@@H](Cc2cccc3ccccc23)C(=O)N1)C(N)=O [compound 218],0.012 µM,> 7 µM,> 7 µM,0.3 µM,10 µM,> 7 µM,5.21 µM,–,–,–,–,–
C#CC[C@@H]1NC(=O)[C@H](CCCNC(=N)N)NC(=O)[C@H](CCCCN)NC(=O)[C@H](CO)NC(=O)[C@H](CC(=O)O)NC(=O)[C@@H]2CSSC[C@@H]3NC(=O)[C@H](CCCNC(=N)N)NC(=O)[C@H](CC(C)C)NC(=O)CNC(=O)[C@H](CCC(=O)O)NC(=O)[C@H](CSSC[C@H](NC(=O)[C@@H](N)Cc4ccc(O)cc4)C(=O)N[C@@H](CCC(N)=O)C(=O)N[C@@H](CCCCN)C(=O)N[C@@H](Cc4c[nH]c5ccccc45)C(=O)N[C@@H](CCCC)C(=O)N[C@@H](Cc4c[nH]c5ccccc45)C(=O)N[C@@H]([C@@H](C)O)C(=O)N2)NC(=O)[C@H](CSSC[C@@H](C(=O)N[C@@H](CCCNC(=N)N)C(=O)N[C@@H](CCCCN)C(=O)N[C@H](C(=O)N[C@H](C(N)=O)[C@@H](C)CC)[C@@H](C)CC)NC(=O)[C@H](Cc2c[nH]c4ccccc24)NC(=O)[C@H](CC(C)C)NC(=O)[C@H](CCCCN)NC3=O)NC1=O [compound 283],–,0.09 µM,0.06 µM,0.07 µM,–,> 7 µM,–,0.0003 µM,1,0.63 µM,0.005 µM,17
CC[C@H](C)[C@H](NC(=O)[C@H](Cc1ccc(O)cc1)NC(=O)[C@H](CCCCN)NC(=O)[C@H](CCCNC(=N)N)NC(=O)[C@@H]1CSSC[C@@H]2NC(=O)[C@H](C)NC(=O)[C@H](CCCNC(=N)N)NC(=O)[C@H](CCCCN)NC(=O)[C@H](CO)NC(=O)[C@H](CC(=O)O)NC(=O)[C@@H]3CSSC[C@H](NC(=O)[C@H](CCC(=O)O)NC(=O)[C@H](CC(C)C)NC(=O)CNC(=O)[C@H](CCC(=O)O)NC(=O)[C@H](CSSC[C@H](NC(=O)[C@@H](N)Cc4ccc(O)cc4)C(=O)N[C@@H](CCC(N)=O)C(=O)N[C@@H](CCCCN)C(=O)N[C@@H](Cc4c[nH]c5ccccc45)C(=O)N[C@@H](CCSC)C(=O)N[C@@H](Cc4c[nH]c5ccccc45)C(=O)N[C@@H]([C@@H](C)O)C(=O)N3)NC2=O)C(=O)N[C@@H](CCCCN)C(=O)N[C@@H](CC(C)C)C(=O)N[C@@H](Cc2c[nH]c3ccccc23)C(=O)N1)C(N)=O [compound 137],0.0009 µM,> 3.5 µM,2.01 µM,0.09 µM,11.4 µM,8 µM,1.27 µM,–,41,–,–,–
CC[C@H](C)[C@H](NC(=O)[C@H](Cc1ccc(O)cc1)NC(=O)[C@H](CCCCN)NC(=O)[C@H](CCCNC(=N)N)NC(=O)[C@@H]1CSSC[C@@H]2NC(=O)[C@H](C)NC(=O)[C@H](CCCNC(=N)N)NC(=O)[C@H](CCCCN)NC(=O)[C@H](CO)NC(=O)[C@H](CC(=O)O)NC(=O)[C@@H]3CSSC[C@H](NC(=O)[C@H](CCC(=O)O)NC(=O)[C@H](CC(C)C)NC(=O)CNC(=O)[C@H](CCC(=O)O)NC(=O)[C@H](CSSC[C@H](NC(=O)[C@@H](N)Cc4ccc(O)cc4)C(=O)N[C@@H](CCC(N)=O)C(=O)N[C@@H](CCCCN)C(=O)N[C@@H](Cc4ccccc4)C(=O)N[C@@H](CCSC)C(=O)N[C@@H](Cc4c[nH]c5ccccc45)C(=O)N[C@@H]([C@@H](C)O)C(=O)N3)NC2=O)C(=O)N[C@@H](CCCCN)C(=O)N[C@@H](CC(C)C)C(=O)N[C@@H](Cc2c[nH]c3ccccc23)C(=O)N1)C(N)=O [compound 193],0.0046 µM,> 5 µM,> 5 µM,0.16 µM and 0.23 µM,> 1 µM,> 5 µM,1 µM,–,–,–,–,–
CC[C@H](C)[C@H](NC(=O)[C@@H](NC(=O)[C@H](CCCCN)NC(=O)[C@H](CCCNC(=N)N)NC(=O)[C@@H]1CSSC[C@@H]2NC(=O)[C@H](C)NC(=O)[C@H](CCCNC(=N)N)NC(=O)[C@H](CCCCN)NC(=O)[C@H](CO)NC(=O)[C@H](CC(=O)O)NC(=O)[C@@H]3CSSC[C@H](NC(=O)[C@H](CCC(=O)O)NC(=O)[C@H](CC(C)C)NC(=O)CNC(=O)[C@H](CCC(=O)O)NC(=O)[C@H](CSSC[C@H](NC(=O)[C@@H](N)Cc4ccc(O)cc4)C(=O)N[C@@H](CCC(N)=O)C(=O)N[C@@H](CCCCN)C(=O)N[C@@H](Cc4c[nH]c5ccccc45)C(=O)N[C@@H](CCSC)C(=O)N[C@@H](Cc4c[nH]c5ccccc45)C(=O)N[C@@H]([C@@H](C)O)C(=O)N3)NC2=O)C(=O)N[C@@H](CCCCN)C(=O)N[C@@H](CC(C)C)C(=O)N[C@@H](Cc2c[nH]c3ccccc23)C(=O)N1)[C@@H](C)CC)C(N)=O [compound 63],0.007 µM,> 5 µM,> 5 µM,0.36 µM,9.33 µM,9.8 µM,–,–,14,–,–,–
CCC[C@@H]1NC(=O)[C@H](CC(C)C)NC(=O)[C@H](CCCCN)NC(=O)[C@@H]2CSSC[C@@H]3NC(=O)[C@H]([C@@H](C)O)NC(=O)[C@H](Cc4c[nH]c5ccccc45)NC(=O)[C@H](CCSC)NC(=O)[C@H](Cc4c[nH]c5ccccc45)NC(=O)[C@H](CCCCN)NC(=O)[C@H](CCC(N)=O)NC(=O)[C@@H](NC(=O)[C@@H](N)Cc4ccc(O)cc4)CSSC[C@H](NC(=O)[C@H](CSSC[C@@H](C(=O)N[C@@H](CCCNC(=N)N)C(=O)N[C@@H](CCCCN)C(=O)N[C@@H](Cc4ccc(O)cc4)C(=O)N[C@H](C(N)=O)[C@@H](C)CC)NC1=O)NC(=O)[C@H](C)NC(=O)[C@H](CCCNC(=N)N)NC(=O)[C@H](CCCCN)NC(=O)[C@H](CO)NC(=O)[C@H](CC(=O)O)NC3=O)C(=O)N[C@@H](CCC(=O)O)C(=O)NCC(=O)N[C@@H](CC(C)C)C(=O)N[C@@H](CCC(=O)O)C(=O)N2 [compound 226],–,> 5 µM,> 5 µM,> 5 µM,–,> 5 µM,–,–,–,–,–,–
CCCC[C@@H]1NC(=O)[C@H](Cc2c[nH]c3ccccc23)NC(=O)[C@H](CCCCN)NC(=O)[C@H](CCC(N)=O)NC(=O)[C@@H](NC(=O)[C@@H](N)Cc2ccc(O)cc2)CSSC[C@@H]2NC(=O)[C@@H]3CSSC[C@@H](C(=O)N[C@@H](CCCNC(=N)N)C(=O)N[C@@H](CCCCN)C(=O)N[C@H](C(=O)N[C@H](C(N)=O)[C@@H](C)CC)[C@@H](C)CC)NC(=O)[C@H](Cc4c[nH]c5ccccc45)NC(=O)[C@H](CC(C)C)NC(=O)[C@H](CCCCN)NC(=O)[C@H](CSSC[C@H](NC(=O)[C@H]([C@@H](C)O)NC(=O)[C@H](Cc4c[nH]c5ccccc45)NC1=O)C(=O)N[C@@H](CC(=O)O)C(=O)N[C@@H](CO)C(=O)N[C@@H](CCCCN)C(=O)N[C@@H](CCCNC(=N)N)C(=O)N[C@@H](C)C(=O)N3)NC(=O)[C@H](CCCNC(=N)N)NC(=O)[C@H](CC(C)C)NC(=O)CNC(=O)[C@H](CCC(=O)O)NC2=O [compound 272],0.000586 µM,> 5 µM,> 5 µM,> 5 µM,–,> 5 µM,–,–,–,–,–,–
